In ChEMBL document CHEMBL1136845, “Synthesis, biological activity and tubulin binding poses of 1-deoxy-9-(R)-dihydrotaxane analogs” (Bioorg Med Chem Lett, 2009) one finds IC50 and ED50 data, which are given here for 3 molecules.

The subject of test [1] is A549. The test is described as follows: Cytotoxicity against human A549 cells after 72 hrs by MTT assay. In kind it is functional, cell-based. The following applies: A549, 72 h.
Test [2] deals with A2780. The test is described as follows: Cytotoxicity against human A2780 cells after 72 hrs by MTT assay. In kind it is functional, cell-based. The following applies: A2780, 72 h.
Test [3] can be described thus: Inhibition of GTP-[…] tubulin polymerization.

≈ marks a conversion by molar mass, not a printed value.

Consider `CC(=O)O[C@@]12CO[C@@H]1C[C@H](O)[C@]1(C)[C@@H]2[C@H](OC(=O)c2ccccc2)[C@@H]2C[C@H](OC(=O)[C@H](O)[C@@H](NC(=O)c3ccccc3)c3ccccc3)C(C)=C([C@H]3OC(C)(C)O[C@@H]31)C2(C)C`, for which the IC50 in test [1] was 2.87 ng/mL (≈ 3.42 nM); in test [2], 1.54 ng/mL (≈ 1.84 nM). The molecule further came in with an ED50 in test [3] of 5200 nM.

Turning to `CC(=O)O[C@H]1C(=O)[C@@]2(C)[C@H]([C@H](OC(=O)c3ccccc3)[C@]3(O)C[C@H](OC(=O)[C@H](O)[C@@H](NC(=O)c4ccccc4)c4ccccc4)C(C)=C1C3(C)C)[C@]1(OC(C)=O)CO[C@@H]1C[C@@H]2O` [PACLITAXEL], the IC50 turned out to be 0.29 ng/mL (≈ 0.34 nM) in test [1] and 0.13 ng/mL (≈ 0.152 nM) in test [2]. This molecule also came in with an ED50 in test [3] of 520 nM.

Regarding `CC(=O)O[C@@]12CO[C@@H]1C[C@H](O)[C@]1(C)[C@@H]2[C@H](OC(=O)c2ccccc2)[C@@H]2C[C@H](OC(=O)[C@H](O)[C@@H](NC(=O)c3ccccc3)c3ccccc3)C(C)=C([C@@H](O)[C@@H]1O)C2(C)C`, the results for the IC50 in test [1] and in test [2] were 0.18 ng/mL (≈ 0.226 nM) and 0.11 ng/mL (≈ 0.138 nM), respectively. For the same molecule, the ED50 in test [3] came to 1900 nM.
